The values below come from patent publication US20240327364A1, “THERAPEUTIC TARGETING OF GPR68 TO INDUCE FERROPTOSIS” (University Of Maryland, Baltimore, priority 2023, published 2024).

Data set [1] concerns the target T1, RET (Homo sapiens, UniProt P07949).
T1 construct: purchased DiscoveRx (Fremont, CA)
As to the kind of experiment: KinomeScan. In kind it is binding. As to conditions: read-out: % Control.

Data set [2] concerns the target T2, RSK4(Kin Dom.1-N-terminal) (Homo sapiens, UniProt Q9UK32).
T2 construct: RSK4(Kin Dom.1-N-terminal); purchased DiscoveRx (Fremont, CA)
As to the kind of experiment: KinomeScan. The class given is binding. The settings on record: read-out: % Control.

Data set [3] concerns the target T3, MKK7 (Homo sapiens, UniProt O14733).
T3 construct: purchased DiscoveRx
As to the kind of experiment: KinomeScan. The class given is binding. The settings on record: read-out: % Control.

Data set [4] has as its target T4, PHKG1 (Homo sapiens, UniProt Q16816).
T4 construct: purchased DiscoveRx (Fremont, CA)
As to the kind of experiment: KinomeScan. As to conditions: read-out: % Control. In kind it is binding.

For data set [5], the target named is T5, EGFR(L858R) (Homo sapiens, UniProt P00533, L858R).
T5 construct: purchased DiscoveRx (Fremont, CA), KinomeScan service
As to the kind of experiment: KinomeScan. In kind it is binding. As to conditions: read-out: % Control.

Data set [6] deals with T6, EPHA8 (Homo sapiens, UniProt P29322).
T6 construct: purchased DiscoveRx (Fremont, CA)
As to the kind of experiment: KinomeScan. The class given is binding. As to conditions: read-out: % Control.

The target in data set [7] is T7, OPRK1 (Homo sapiens, UniProt P41145).
T7 construct: host or cells: Chem-1 cells expressing Gα15
As to the kind of experiment: GPCR Profiler. The class given is cell-based.

Data set [8] deals with T8, INSRR (Homo sapiens, UniProt P14616).
T8 construct: purchased DiscoveRx (Fremont, CA)
As to the kind of experiment: KinomeScan. The settings on record: read-out: % Control. The class given is binding.

Data set [9] addresses T9, CCR10 (Homo sapiens, UniProt P46092).
T9 construct: host or cells: Chem-1 cells with Gα15
As to the kind of experiment: GPCR Profiler. In kind it is cell-based.

For data set [10], the target named is T10, PK1 (Homo sapiens, UniProt Q8TCW9).
T10 construct: host or cells: Chem-1 cells with Gα15
As to the kind of experiment: GPCR Profiler. The class given is cell-based.

Data set [11] deals with T11, LPA5 (Homo sapiens, UniProt Q9H1C0).
T11 construct: host or cells: Chem-1 cells with promiscuous Gα15
As to the kind of experiment: GPCR Profiler. The class given is cell-based.

Data set [12] addresses T12, BMPR1B (Homo sapiens, UniProt O00238).
T12 construct: purchased DiscoveRx (Fremont, CA)
As to the kind of experiment: KinomeScan. In kind it is binding. The settings on record: read-out: % Control.

Data set [13] has as its target T13, TAOK3 (Homo sapiens, UniProt Q9H2K8).
T13 construct: purchased DiscoveRx (Fremont, CA)
As to the kind of experiment: KinomeScan. In kind it is binding. As to conditions: read-out: % Control.

The target of data set [14] is T14, PRKCI (Homo sapiens, UniProt P41743).
T14 construct: purchased DiscoveRx (Fremont, CA)
As to the kind of experiment: KinomeScan. In kind it is binding. As to conditions: read-out: % Control.

Data set [15] has as its target T15, FGR (Homo sapiens, UniProt P09769).
T15 construct: purchased DiscoveRx (Fremont, CA)
As to the kind of experiment: KinomeScan. In kind it is binding. The settings on record: read-out: % Control.

The target in data set [16] is T16, EP2 (Homo sapiens, UniProt P43116).
T16 construct: host or cells: Chem-1 cells expressing Gα15
As to the kind of experiment: GPCR Profiler. In kind it is cell-based.

Data set [17] relates to HEK293. As to the kind of experiment: Liperfluo lipid peroxidation, HEK293. The class given is cell-based, human. The protocol: Cells were plated on a 100 mm cell culture dish (CELLTREAT Scientific Products) in 10 mls of DMEM with high glucose, GlutaMAX, HEPES, Penicillin-Streptomycin (ThermoFisher™) and 10% FBS. Cells were incubated overnight at 37° C. in 5% CO2. Media were then replaced with […] fresh media with DMSO, OGM2, or Erastin (APExBIO Technology™) and the cells incubated for 3 days. On the third day, 3 mL fresh media with 2.5 μM Liperfluo™ (Dojindo Molecular Technologies™, Inc.) resuspended in DMSO was added and cells were incubated at 37° C. in 5% CO2 for 1 hour. Cells were subsequently trypsinized for 5 minutes, pelleted by centrifugation, and resuspended in cell sorting media (1% BSA and 1 mM EDTA in PBS pH 7.4). Ten thousand events were recorded on a BD LSR II and the data processed using the FlowJo™ software.

In data set [18] the test system is HT-29. As to the kind of experiment: Cell Titer-Glo viability, Colorectal adenocarcinoma. The class given is cell-based. More on the design: key to Class: Very Sensitive (LC50<2 μM); Sensitive (LC50=2 to 10 μM); Mildly Sensitive (LC50>10 μM); Refractory (no killing at 10 μM). The protocol:
OGM2 kills wide variety of cancer cell types. Cell sensitivity can be classified in to Very Sensitive (LC50<2 μM), Sensitive (LC50=2 to 10 μM), Mildly Sensitive (LC50>10 μM), and Refractory (no killing at 10 μM). The listed established cell were incubated with OGM2 at 2 μM or 10 μM for 72 hours under standard cell culture conditions, and relative cell number was assessed using Cell Titer-Glo Luminescent Cell Viability Assay (Promega™) following the manufacturer's instructions. Luminescence was determined using a Cytation 5 reader and Gen5 software package (BioTek™).
Cancer cells, which are very sensitive to killing by OGM2 (LCs <2 μM), with reported mRNA expression of GPR68 and the related proton sensing receptor GPR4. LC50's (concentrations causing 50% lethality) were determined using CellTiter-Glo (Promega™, G7570). Cells were plated in 12-well plates (CELLTREAT Scientific Products, 229112) in 1 ml of DMEM with high glucose, GlutaMAX, HEPES, or RPMI 1640 with Penicillin-Streptomycin (ThermoFisher™, 10564029, 11875119 and 15140122) and 10% FBS. Cells were incubated overnight at 37° C. in 5% CO2. Then 1 mL of fresh media was added with DMSO, OGM, or positive control (Erastin; APExBIO Technology, LLC, B1524) and cells incubated for 3 days. On the third day, all media was removed, cells were rinsed with 1×PBS, PBS was removed, and 200 μL of 1× Passive Lysis Buffer (Promega™, E1941) was added to each well. […]. Subsequently, 20 μL of lysate was added to 100 μL CellTiter-Glo™ reagent on a LUMITRAC 200 plate (Greiner™ bio-one, 82050-726). Plates were briefly spun down and read on a GloMax-Multi Detection System (Promega™).
The cells listed in the tables above were incubated with OGM2 at 2 μM or 10 μM for 72 hours under standard cell culture conditions, and relative cell number was assessed using Cell Titer-Glo Luminescent Cell Viability Assay (Promega™) following the manufacturer's instructions. Luminescence was determined using a Cytation 5 reader and Gen5 software package (BioTek™). RNA expression of GPR68 and GPR4 in the corresponding cancer cell lines are listed, according to the publicly available The Human Protein Atlas version 22.0 and Ensembl version 103.38 (see proteinatlas.org). The consensus normalized expression value (“nTPM”=normalize transcript per million) was calculated as the maximum nTPM value for each gene in the two data sources.

T16 sequence (P43116 whole entry): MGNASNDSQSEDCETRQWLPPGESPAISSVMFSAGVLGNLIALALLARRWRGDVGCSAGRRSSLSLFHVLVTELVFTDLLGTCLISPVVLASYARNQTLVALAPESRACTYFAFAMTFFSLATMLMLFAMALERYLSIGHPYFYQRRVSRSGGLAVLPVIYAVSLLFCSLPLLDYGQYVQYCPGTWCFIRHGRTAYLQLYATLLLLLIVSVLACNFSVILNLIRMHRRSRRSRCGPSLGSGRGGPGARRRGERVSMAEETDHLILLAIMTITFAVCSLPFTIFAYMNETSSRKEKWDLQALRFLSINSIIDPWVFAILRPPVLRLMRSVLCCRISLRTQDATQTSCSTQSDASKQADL
T7 sequence (P41145 whole entry, species assumed): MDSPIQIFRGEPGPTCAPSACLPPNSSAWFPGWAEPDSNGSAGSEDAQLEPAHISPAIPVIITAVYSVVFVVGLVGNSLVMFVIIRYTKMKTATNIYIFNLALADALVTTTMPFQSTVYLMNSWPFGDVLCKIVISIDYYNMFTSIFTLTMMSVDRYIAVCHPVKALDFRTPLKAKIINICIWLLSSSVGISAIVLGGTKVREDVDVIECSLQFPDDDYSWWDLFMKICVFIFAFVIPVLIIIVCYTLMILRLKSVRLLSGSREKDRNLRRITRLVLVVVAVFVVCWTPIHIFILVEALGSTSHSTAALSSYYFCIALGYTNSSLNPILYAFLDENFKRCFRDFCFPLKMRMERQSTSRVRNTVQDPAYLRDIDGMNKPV
T11 sequence (Q9H1C0 whole entry, species assumed): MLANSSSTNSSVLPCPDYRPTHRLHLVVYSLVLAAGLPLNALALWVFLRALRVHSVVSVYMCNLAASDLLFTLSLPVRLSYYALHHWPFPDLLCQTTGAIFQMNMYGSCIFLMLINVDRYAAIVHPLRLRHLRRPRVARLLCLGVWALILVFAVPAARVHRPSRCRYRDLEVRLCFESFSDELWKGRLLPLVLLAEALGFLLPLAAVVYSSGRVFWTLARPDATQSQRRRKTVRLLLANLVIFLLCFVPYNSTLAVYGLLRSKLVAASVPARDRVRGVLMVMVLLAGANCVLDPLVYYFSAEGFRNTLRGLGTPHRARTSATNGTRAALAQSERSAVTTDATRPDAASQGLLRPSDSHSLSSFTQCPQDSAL
T10 sequence (Q8TCW9 whole entry): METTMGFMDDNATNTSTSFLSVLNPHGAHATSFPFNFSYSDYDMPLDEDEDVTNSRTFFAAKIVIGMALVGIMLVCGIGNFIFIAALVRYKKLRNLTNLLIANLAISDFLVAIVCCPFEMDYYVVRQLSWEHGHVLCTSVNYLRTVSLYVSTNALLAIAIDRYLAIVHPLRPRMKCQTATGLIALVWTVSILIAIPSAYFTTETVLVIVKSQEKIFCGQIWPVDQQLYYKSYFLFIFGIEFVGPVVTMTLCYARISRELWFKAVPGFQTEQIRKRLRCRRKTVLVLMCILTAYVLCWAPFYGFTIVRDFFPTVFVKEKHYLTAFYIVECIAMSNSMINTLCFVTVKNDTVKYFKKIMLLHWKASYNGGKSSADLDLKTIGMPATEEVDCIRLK
T9 sequence (P46092 whole entry): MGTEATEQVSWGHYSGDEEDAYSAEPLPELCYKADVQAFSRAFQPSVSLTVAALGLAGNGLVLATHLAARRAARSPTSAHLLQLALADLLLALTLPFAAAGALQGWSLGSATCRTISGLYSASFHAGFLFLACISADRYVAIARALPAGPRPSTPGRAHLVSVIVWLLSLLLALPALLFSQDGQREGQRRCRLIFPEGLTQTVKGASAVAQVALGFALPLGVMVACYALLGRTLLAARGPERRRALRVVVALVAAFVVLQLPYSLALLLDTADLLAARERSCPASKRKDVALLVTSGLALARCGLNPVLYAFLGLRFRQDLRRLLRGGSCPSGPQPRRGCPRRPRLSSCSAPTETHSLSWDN
T3 sequence (O14733 whole entry): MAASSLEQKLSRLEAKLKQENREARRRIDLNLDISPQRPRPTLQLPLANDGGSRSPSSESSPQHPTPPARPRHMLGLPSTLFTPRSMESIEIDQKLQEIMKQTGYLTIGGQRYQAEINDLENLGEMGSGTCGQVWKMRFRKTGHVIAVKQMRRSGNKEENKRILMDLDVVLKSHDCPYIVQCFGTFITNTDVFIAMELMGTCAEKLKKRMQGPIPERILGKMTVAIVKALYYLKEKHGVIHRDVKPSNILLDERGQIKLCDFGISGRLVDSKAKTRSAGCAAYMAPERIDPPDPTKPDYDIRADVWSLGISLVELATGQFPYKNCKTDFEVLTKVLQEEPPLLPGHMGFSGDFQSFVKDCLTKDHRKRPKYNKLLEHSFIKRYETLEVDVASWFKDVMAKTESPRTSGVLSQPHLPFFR
T8 sequence (P14616 27-1297): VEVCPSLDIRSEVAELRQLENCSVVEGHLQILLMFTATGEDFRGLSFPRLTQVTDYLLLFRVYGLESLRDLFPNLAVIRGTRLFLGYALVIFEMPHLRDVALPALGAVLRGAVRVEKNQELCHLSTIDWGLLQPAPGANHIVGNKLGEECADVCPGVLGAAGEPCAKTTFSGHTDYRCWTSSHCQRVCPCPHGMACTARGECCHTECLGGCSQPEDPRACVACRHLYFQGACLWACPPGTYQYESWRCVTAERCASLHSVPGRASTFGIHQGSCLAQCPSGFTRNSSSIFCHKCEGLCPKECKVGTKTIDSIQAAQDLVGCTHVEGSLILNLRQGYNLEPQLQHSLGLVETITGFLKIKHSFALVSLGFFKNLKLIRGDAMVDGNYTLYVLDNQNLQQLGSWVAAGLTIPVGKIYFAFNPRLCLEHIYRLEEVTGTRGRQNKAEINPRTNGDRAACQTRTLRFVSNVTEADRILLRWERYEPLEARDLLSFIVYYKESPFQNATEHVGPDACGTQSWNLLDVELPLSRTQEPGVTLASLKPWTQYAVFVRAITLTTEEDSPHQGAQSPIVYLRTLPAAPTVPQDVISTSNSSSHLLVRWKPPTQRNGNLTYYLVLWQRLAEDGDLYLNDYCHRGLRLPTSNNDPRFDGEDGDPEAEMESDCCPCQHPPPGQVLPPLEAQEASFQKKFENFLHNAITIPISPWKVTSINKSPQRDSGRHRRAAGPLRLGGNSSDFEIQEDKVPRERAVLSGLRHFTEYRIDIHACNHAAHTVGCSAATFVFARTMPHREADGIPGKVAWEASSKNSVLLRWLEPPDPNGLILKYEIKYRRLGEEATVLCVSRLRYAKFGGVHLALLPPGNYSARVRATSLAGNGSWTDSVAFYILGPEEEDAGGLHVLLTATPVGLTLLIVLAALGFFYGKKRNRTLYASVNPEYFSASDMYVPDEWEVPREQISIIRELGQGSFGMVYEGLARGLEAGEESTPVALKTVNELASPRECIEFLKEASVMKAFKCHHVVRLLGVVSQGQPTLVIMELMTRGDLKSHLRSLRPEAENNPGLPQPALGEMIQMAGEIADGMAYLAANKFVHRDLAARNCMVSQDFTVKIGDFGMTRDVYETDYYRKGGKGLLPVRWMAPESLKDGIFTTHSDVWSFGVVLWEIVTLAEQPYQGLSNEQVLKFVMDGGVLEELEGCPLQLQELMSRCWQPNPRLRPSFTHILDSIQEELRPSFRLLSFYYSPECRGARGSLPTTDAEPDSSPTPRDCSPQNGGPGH
T5 sequence (P00533 25-1210 L858R): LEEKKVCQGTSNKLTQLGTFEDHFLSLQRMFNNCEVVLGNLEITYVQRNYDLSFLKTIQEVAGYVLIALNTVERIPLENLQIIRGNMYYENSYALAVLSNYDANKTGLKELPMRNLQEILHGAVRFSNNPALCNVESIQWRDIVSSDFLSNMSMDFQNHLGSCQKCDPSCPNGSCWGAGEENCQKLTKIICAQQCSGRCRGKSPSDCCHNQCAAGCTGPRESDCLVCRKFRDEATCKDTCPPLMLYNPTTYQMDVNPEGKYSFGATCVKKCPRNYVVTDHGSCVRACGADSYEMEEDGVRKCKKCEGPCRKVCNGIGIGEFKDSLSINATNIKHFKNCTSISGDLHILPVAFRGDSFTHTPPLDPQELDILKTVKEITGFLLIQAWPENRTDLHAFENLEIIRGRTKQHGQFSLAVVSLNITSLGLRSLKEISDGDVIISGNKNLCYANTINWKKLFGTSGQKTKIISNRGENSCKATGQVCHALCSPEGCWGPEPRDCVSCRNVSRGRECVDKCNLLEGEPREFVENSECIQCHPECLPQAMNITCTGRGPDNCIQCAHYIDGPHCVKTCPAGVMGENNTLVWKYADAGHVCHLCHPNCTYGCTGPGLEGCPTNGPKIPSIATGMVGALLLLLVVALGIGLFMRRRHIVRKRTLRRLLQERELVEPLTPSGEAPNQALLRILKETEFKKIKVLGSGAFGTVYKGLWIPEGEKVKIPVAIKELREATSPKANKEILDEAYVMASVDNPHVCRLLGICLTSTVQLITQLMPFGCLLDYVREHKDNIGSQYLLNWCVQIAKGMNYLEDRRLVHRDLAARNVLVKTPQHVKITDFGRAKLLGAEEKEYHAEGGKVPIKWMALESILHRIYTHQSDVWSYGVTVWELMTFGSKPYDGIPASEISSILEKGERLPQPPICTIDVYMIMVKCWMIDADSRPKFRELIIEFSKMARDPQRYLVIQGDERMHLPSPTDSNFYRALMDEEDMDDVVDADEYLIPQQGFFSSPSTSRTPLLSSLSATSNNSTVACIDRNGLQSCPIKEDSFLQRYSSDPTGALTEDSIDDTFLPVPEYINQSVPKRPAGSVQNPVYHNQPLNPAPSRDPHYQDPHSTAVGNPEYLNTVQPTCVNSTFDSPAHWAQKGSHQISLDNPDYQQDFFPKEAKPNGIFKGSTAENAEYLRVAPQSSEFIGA
T2 sequence (Q9UK32 73-330 limits assumed): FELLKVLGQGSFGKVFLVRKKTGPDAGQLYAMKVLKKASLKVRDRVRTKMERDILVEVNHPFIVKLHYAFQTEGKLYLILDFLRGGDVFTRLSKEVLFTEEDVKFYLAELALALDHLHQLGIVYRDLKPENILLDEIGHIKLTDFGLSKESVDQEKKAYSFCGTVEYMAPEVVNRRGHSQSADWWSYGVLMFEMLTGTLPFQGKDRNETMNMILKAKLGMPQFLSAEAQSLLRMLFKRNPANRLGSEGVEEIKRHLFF

Regarding `CCc1ccc2c(c1)C1(NN=C(c3cccc4ccccc34)S1)C(=O)N2` (centres unmarked) [OGM1, 5-ethyl-5′-naphthalen-1-ylspiro[1H-indole-3,2′-3H-1,3,4-thiadiazole]-2-one], the remaining binding at 10 µM stood at 100% in [1]; 100% in [2]; 99% in data set [3]; 91% in data set [4]; 100% in data set [5]; 100% in [6]. For the same compound, the remaining binding at 10 µM was determined as 100% in [8]; 81% in data set [12]; 79% in [13]; 94% in [14]; 100% in data set [15]. The Antagonism in data set [7] (10 uM) is −8.1; in data set [9] (10 uM), −16.7; in data set [10] (10 uM), −8; in data set [11] (10 uM) it was −16.2; in [16] (10 uM) it was 7. The Agonism in data set [7] (12.5 uM) was 4.3; in data set [9] (12.5 uM), −0.2; in [10] (12.5 uM) it was 0.2; in [11] (12.5 uM), −0.1; in data set [16] (12.5 uM), −0.2.

Turning to `CCc1ccc2c(c1)C1(NN=C(c3ccccc3)S1)C(=O)N2` (centres unmarked) [OGM2], the lipid peroxidation entry in data set [17] is given as “did not induce lipid peroxidation”. Also, in data set [18], the Class entry was “Refractory”. Moreover, in data set [18] (72 hours), the “% Survival 2 μM OGM” value worked out at 102.8%, the “% Survival 10 μM OGM” value is given as 103.9% and the “LC50 (μM)” value is on record as “No”.
